Test results published in patent publication US4124766A, “Substituted 3-(4-imidazolylmethylene)carbazic and thiocarbazic acid esters” (American Cyanamid Company, priority 1977, dated 1978).

Key:
[1] = test system: mouse skin PDE (cyclic-AMP phosphodiesterase); experiment: Mouse skin phosphodiesterase (PDE) inhibition test (A); type: biochemical, mouse (hairless mice); design: key to Mouse Skin Phosphodiesterase (A): Active: A compound is considered active if it inhibits more than theophylline, that is, to 50% of control at 1 mM concentration of compound, or to 80% of control for 0.05 mM concentration of compound; settings: for Mouse Skin Phosphodiesterase (A): final concentration of test compound 10 ug./ml, active = inhibits more than theophylline
[2] = test system: monkey lung cyclic AMP phosphodiesterase; experiment: Monkey lung phosphodiesterase inhibition test (B); type: biochemical, African green monkey; design: key to Monkey Lung Phosphodiesterase (B): Active: A compound is considered active if it inhibits more than theophylline, that is, to 50% of control at 1 mM concentration of compound, or to 80% of control for 0.05 mM concentration of compound; settings: for Monkey Lung Phosphodiesterase (B): test compound usually 1 mM or 0.1 mM, active = inhibits more than theophylline
Method: Lung parenchyma of African green monkeys is homogenized in a Waring blender and centrifuged at 40,000 × gravity for 20 minutes. The supernatant is brought to 70% saturation of ammonium sulfate, centrifuged and the pellet redissolved and dialysed, before aliquoting and storage at -20° C.
Phosphodiesterase is assayed by the method of Thompson and Appleman, ibid. An assay tube contains a 0.4 ml. solution of the following: 45 mM tris-HCl buffer, pH 7.4, 6.25 mM MgCl2, 0.1 mM dithioerythritol, 10^-6 M cyclic AMP, 0.1 uCi [^3 H]-cyclic AMP, and test compound at the desired concentration (usually 1 mM or 0.1 mM). Compounds not readily soluble in water are dissolved at 40 times the desired concentration in methanol, and diluted 20 times with water. If the compound is not dissolved at this time, it is suspended by sonication before being diluted 1:2 into the assay tube. In this case the activity of the enzyme in the presence of the compound is compared to a solvent control (2.5% methanol), although the solvent alone has negligible effect. The reaction is initiated by addition of enzyme and proceedes at 25° C. for 20 minutes. It is terminated by incubation at 100° C. for 2 minutes. The tubes are cooled to 25° C., 0.8 ug of 5'-nucleotidase (Crotolus adamantus toxin) is added to each and the tubes incubated at 25° C. for 30 minutes. A one milliliter suspension of Bio-Rad Labs. AGIX8® (about 0.5 ml. of settled resin) is added, the tubes centrifuged at 900 × gravity for 10 minutes and an aliquot of supernatant removed for scintillation counting. The inhibition by the test compound is calculated as: [formula] where `compound` is the cpm in the presence of compound, `control` is the cpm in the absence of compound, and `blank` is the cpm in the absence of enzyme. […] For this reason, control tubes which contained [^3 H]-AMP instead of [^3 H]-cyclic AMP are run in parallel. A correction of the apparent phosphodiesterase activity is made for the rare compound which inhibited the hydrolysis of AMP.
A compound is considered active if it inhibits more than theophylline, that is, to 50% of control at 1 mM concentration of compound, or to 80% of control for 0.05 mM concentration of compound.

Row | Structure (SMILES) | Mouse Skin Phosphodiesterase (A) [1] | Monkey Lung Phosphodiesterase (B) [2] | phosphodiesterase activity, % of control (theophylline benchmark) ([1]; 0.05 mM concentration of compound, criterion stated for skin (A) or lung (B)) [%] | phosphodiesterase activity, % of control (theophylline benchmark) ([2]; 1 mM concentration of compound, criterion stated for skin (A) or lung (B)) [%]
1 | Cc1nc(C)n2c(=O)[nH]ncc12 [6,8-Dimethyl-imidazo[1,5-d]-as-triazin-4(3H)-one] | Active | Active |  | 
2 | Cc1nc(C)n2c(=S)[nH]ncc12 [6,8-Dimethyl-imidazo[1,5-d]-as-triazine-4(3H)-thione] | Active |  |  | 
3 | Cc1nc(Cc2ccccc2)n2c(=O)[nH]ncc12 [6-Benzyl-8-methyl-imidazo[1,5-d]-as-triazin-4(3H)-one] | Active |  |  | 
4 | Cc1nc(Cc2ccccc2)n2c(=S)[nH]ncc12 [6-Benzyl-8-methyl-imidazo[1,5-d]-as-triazine-4(3H)-thione] | Active | Active |  | 
5 | O=c1[nH]ncc2cnc(Cc3ccccc3)n12 [6-Benzyl-imidazo[1,5-d]-as-triazin-4(3H)-one] | Active |  |  | 
6 | O=c1[nH]ncc2cnc(-c3ccccc3)n12 [6-Phenyl-imidazo[1,5-d]-as-triazin-4(3H)-one] | Active |  |  | 
7 | CCCc1ncc2cn[nH]c(=O)n12 [6-n-Propyl-imidazo[1,5-d]-as-triazin-4(3H)-one] | Active |  |  | 
8 | CCCc1ncc2cn[nH]c(=S)n12 [6-n-Propyl-imidazo[1,5-d]-as-triazine-4(3H)-thione] | Active | Active |  | 
9 | CCCOc1ccccc1-c1ncc2cn[nH]c(=O)n12 [6-o-Propoxyphenyl-imidazo[1,5-d]-as-triazin-4(3H)-one] | Active |  |  | 
10 | Cc1nc(C(C)(C)C)n2c(=O)[nH]ncc12 [6-tert-Butyl-8-methyl-imidazo[1,5-d]-as-triazin-4(3H)-one] | Active | Active |  | 
11 | CC(C)(C)c1ncc2cn[nH]c(=O)n12 [6-tert-Butyl-imidazo[1,5-d]-as-triazin-4(3H)-one] | Active |  |  | 
12 | O=c1[nH]ncc2c(Br)nc(-c3ccccc3)n12 [8-Bromo-6-phenyl-imidazo[1,5-d]-as-triazin-4(3H)-one] | Active | Active |  | 
13 | O=c1[nH]ncc2c(Cl)nc(-c3ccccc3)n12 [8-Chloro-6-phenyl-imidazo[1,5-d]-as-triazin-4(3H)-one] | Active | Active |  | 
14 | CCCc1nc(C)c2cn[nH]c(=S)n12 [8-Methyl-6-n-propyl-imidazo[1,5-d]-as-triazine-4(3H)-thione] | Active | Active |  | 
15 | Cc1nc(-c2ccccc2)n2c(=O)[nH]ncc12 [8-Methyl-6-phenyl-imidazo[1,5-d]-as-triazin-4(3H)-one] | Active | Active |  | 
16 | Cc1nc(-c2ccccc2)n2c(=S)[nH]ncc12 [8-Methyl-6-phenyl-imidazo[1,5-d]-as-triazine-4(3H)-thione] | Active |  |  | 
17 | Cc1ncn2c(=O)[nH]ncc12 [8-Methyl-imidazo[1,5-d]-as-triazin-4(3H)-one] | Active |  |  | 
18 | Cc1ncn2c(=S)[nH]ncc12 [8-Methyl-imidazo[1,5-d]-as-triazine-4(3H)-thione] | Active |  |  | 
19 | Cn1c(=O)c2[nH]cnc2n(C)c1=O [theophylline, reference compound] |  |  | 80 | 50
